Source: patent US6355633B1, “Aryl sulfonic acids and derivatives as FSH antagonists” (American Home Products Corporation, priority 1999, dated 2002)
Where two headings read alike, the source gives them in different places.

Experiments:
[1] = molecular target: T1, FSH receptor (Homo sapiens, UniProt P23945); experiment: In Vitro Bio-test Procedure of Agonists and Antagonists to the FSH Receptor (cAMP accumulation in CHO-3D2 cells); assay type: cell-based; design: expressed in transfected cells; host or cells: CHO-3D2 cells
T1 sequence (P23945 18-695): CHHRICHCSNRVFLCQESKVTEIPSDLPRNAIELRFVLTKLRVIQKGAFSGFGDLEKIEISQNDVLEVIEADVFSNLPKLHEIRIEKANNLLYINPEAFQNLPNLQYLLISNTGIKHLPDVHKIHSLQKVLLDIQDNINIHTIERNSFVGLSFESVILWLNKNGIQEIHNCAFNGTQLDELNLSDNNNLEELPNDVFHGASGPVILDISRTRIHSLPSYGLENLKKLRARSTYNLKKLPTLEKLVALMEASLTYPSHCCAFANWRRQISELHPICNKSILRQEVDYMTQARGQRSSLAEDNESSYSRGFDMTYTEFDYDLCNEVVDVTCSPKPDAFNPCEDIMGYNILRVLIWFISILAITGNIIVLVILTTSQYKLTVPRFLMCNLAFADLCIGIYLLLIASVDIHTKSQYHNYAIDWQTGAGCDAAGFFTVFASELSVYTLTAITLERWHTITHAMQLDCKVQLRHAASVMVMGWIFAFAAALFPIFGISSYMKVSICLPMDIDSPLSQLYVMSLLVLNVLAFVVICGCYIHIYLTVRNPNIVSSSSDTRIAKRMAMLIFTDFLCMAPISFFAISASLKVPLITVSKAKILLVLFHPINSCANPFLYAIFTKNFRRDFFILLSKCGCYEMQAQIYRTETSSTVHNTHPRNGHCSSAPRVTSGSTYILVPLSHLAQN
How it was run: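 CHO-3D2 cells (30,000/well, plated one day earlier) preincubated 30-45 min, then challenged with compounds in Optimem/0.1% BSA for 30 minutes at 37 deg C; agonist mode at 5 concentrations, antagonist mode against ED20 FSH. cAMP accumulation in medium measured by radioimmunoassay (fmol/mL); ANOVA with Dunnett's or Duncan's test.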

[2] = test system: FSH-induced changes in ovarian follicular maturation; experiment: Immature Rat Test Procedure (FSH-induced organ wet weight); assay type: in vivo; settings: immature rats, twice daily for three days with half-maximal dose of hFSH; for IC50 (mg/Kg) ovaries: ovarian wet weight; for IC50 (mg/Kg) uterus: uterine wet weight
Method: Immature Rat Test Procedure
In order to assess the ability of compounds to affect FSH-induced changes in ovarian follicular maturation in vivo, immature rats (18 days of age) are treated twice daily for three days with compound in the presence of a half-maximal dose of purified human FSH. Animals are treated via the i.p. or p.o. routes. On the fourth day following treatment, animals are euthanized and the ovaries, uterus and spleen (the spleen is a control tissue that should not respond to FHS stimulation) collected for wet weight determination. In each experiment animals treated with vehicle alone or FSH alone are used as negative and positive controls, respectively.

[3] = antagonist mode, inhibition of hFSH-induced cAMP accumulation (ED20 of FSH, […]), CHO-3D2 cells

How did the IC50 [1] turn out when `COc1ccc(C(=O)Nc2ccc(/C=C/c3ccc(NC(=O)c4ccc(OC)c(S(=O)(=O)N5CCS(=O)(=O)CC5)c4)cc3S(=O)(=O)O)c(S(=O)(=O)O)c2)cc1S(=O)(=O)N1CCS(=O)(=O)CC1` [Example 30k, 2,2′-[(E)-1,2-Ethenediyl]bis[5-[[3-[(1,1-dioxido-4-thiomorpholinyl)sulfonyl]-4-methoxybenzoyl]amino]benzenesulfonic Acid]] was run?
Its IC50 is 1500 nM.

For `COCCOCCOc1ccc(C(=O)Nc2ccc(/C=C/c3ccc(NC(=O)c4ccc(OCCOCCOC)c(S(=O)(=O)N5CCOCC5)c4)cc3S(=O)(=O)O)c(S(=O)(=O)O)c2)cc1S(=O)(=O)N1CCOCC1` [Example 30a, 2,2′-[(E)-1,2-Ethenediyl]bis[5-[[4-[2-(2-methoxyethoxy)ethoxy]-3-(4-morpholinylsulfonyl)benzoyl]amino]benzenesulfonic Acid]], which IC50 [1] is on record?
Its IC50 is 1600 nM.

`COc1ccc(C(=O)Nc2ccc(/C=C/c3ccc(NC(=O)c4ccc(OC)c(S(=O)(=O)N5CCCC5)c4)cc3S(=O)(=O)O)c(S(=O)(=O)O)c2)cc1S(=O)(=O)N1CCCC1` [Example 33e, 2,2′-[(E)-1,2-Ethenediyl]bis[5-[[4-methoxy-3-(1-pyrrolidinylsulfonyl)benzoyl]amino]benzenesulfonic Acid]] was tested. Which IC50 [1] did it give?
The IC50 was 1500 nM.

With `COCCOc1ccc(C(=O)Nc2ccc(/C=C/c3ccc(NC(=O)c4ccc(OCCOC)c(S(=O)(=O)N5CCOCC5)c4)cc3S(=O)(=O)O)c(S(=O)(=O)O)c2)cc1S(=O)(=O)N1CCOCC1` [Example 30t, 2,2′-[(E)-1,2-Ethenediyl]bis[5-[[4-(2-methoxyethoxy)-3-(4-morpholinylsulfony)benzoyl]amino]benzenesulfonic Acid]] as the compound, how does the IC50 [1] read?
Its IC50 is 1400 nM.

`CS(=O)(=O)c1ccc(C(=O)Nc2ccc(/C=C/c3ccc(NC(=O)c4ccc(S(C)(=O)=O)c(S(=O)(=O)N5CCOCC5)c4)cc3S(=O)(=O)O)c(S(=O)(=O)O)c2)cc1S(=O)(=O)N1CCOCC1` [Example 30d, 2,2′-[(E)-1,2-Ethenediyl]bis[5-[[4-(methylsulfonyl)-3-(4-morpholinylsulfonyl)benzoyl]amino]benzenesulfonic Acid]] was tested. Which IC50 [1] did it give?
Its IC50 is 1600 nM.

`CS(=O)(=O)c1ccc(C(=O)Nc2ccc(/C=C/c3ccc(NC(=O)c4ccc(S(C)(=O)=O)cc4)cc3S(=O)(=O)O)c(S(=O)(=O)O)c2)cc1` [Example 30q, 2,2′-[(E)-1,2-Ethenediyl]bis[5-[[4-(methylsulfonyl)benzoyl]amino]benzenesulfonic Acid]] was tested. Which IC50 [1] did it give?
The IC50 was 12000 nM.

Which IC50 [1] does the source give for `COc1ccc(C(=O)Nc2ccc(/C=C/c3ccc(NC(=O)c4ccc(OC)c(S(=O)(=O)N5CCN(C=O)CC5)c4)cc3S(=O)(=O)O)c(S(=O)(=O)O)c2)cc1S(=O)(=O)N1CCN(C=O)CC1` [Example 34b, 2,2′-[(E)-1,2-Ethenediyl]bis[5-[[3-[(4-formyl-1-piperazinyl)sulfonyl]-4-methoxybenzoyl]amino]benzenesulfonic Acid]] here?
Its IC50 is 1700 nM.

Which IC50 [1] does the source give for `COc1ccc(C(=O)Nc2ccc(/C=C/c3ccc(NC(=O)c4ccc(OC)c(S(=O)(=O)N5CCSCC5)c4)cc3S(=O)(=O)O)c(S(=O)(=O)O)c2)cc1S(=O)(=O)N1CCSCC1` [Example 33d, 2,2′-[(E)-1,2-Ethenediyl]bis[5-[[4-methoxy-3-(4-thiomorpholinylsulfonyl)benzoyl]amino]benzenesulfonic Acid]] here?
The IC50 was 2600 nM.

How did the IC50 [1, 3] turn out when `COc1ccc(C(=O)Nc2ccc(/C=C/c3ccc(NC(=O)c4ccc(S(C)(=O)=O)cc4)cc3S(=O)(=O)O)c(S(=O)(=O)O)c2)cc1S(=O)(=O)N1CCOCC1` [Example 30g] was run?
Its IC50 is 2500 nM.

Which IC50 [1] does the source give for `COc1ccc(C(=O)Nc2ccc(CCc3ccc(NC(=O)c4ccc(S(C)(=O)=O)cc4)cc3S(=O)(=O)O)c(S(=O)(=O)O)c2)cc1S(=O)(=O)N1CCOCC1` [Example 43a, 5-[[4-Methoxy-3-(4-morpholinylsulfonyl)benzoyl]amino]-2-[2-[4-[[4-(methylsulfonyl)benzoyl]amino]-2-sulfophenyl]ethyl]benzenesulfonic Acid] here?
Its IC50 is 8700 nM.

Which IC50 [1] does the source give for `COCCNS(=O)(=O)c1cc(C(=O)Nc2ccc(/C=C/c3ccc(NC(=O)c4ccc(S(C)(=O)=O)c([N+](=O)[O-])c4)cc3S(=O)(=O)O)c(S(=O)(=O)O)c2)ccc1OC` [Example 30f] here?
Its IC50 is 3100 nM.

`CSc1ccc(C(=O)Nc2ccc(/C=C/c3ccc(NC(=O)c4ccc(S(C)(=O)=O)c([N+](=O)[O-])c4)cc3S(=O)(=O)O)c(S(=O)(=O)O)c2)cc1S(=O)(=O)N1CCOCC1` [Example 30e] was tested. Which IC50 [1] did it give?
The IC50 was 900 nM.

How did the IC50 [1] turn out when `CCS(=O)(=O)c1ccc(C(=O)Nc2ccc(/C=C/c3ccc(NC(=O)c4ccc(S(=O)(=O)CC)cc4)cc3S(=O)(=O)O)c(S(=O)(=O)O)c2)cc1` [Example 32f, 2,2′-[(E)-1,2-Ethenediyl]bis[5-[[4-(ethylsulfonyl)benzoyl]amino]benzenesulfonic Acid]] was run?
Its IC50 is 4200 nM.

Which IC50 [1] does the source give for `COc1ccc(C(=O)Nc2ccc(/C=C/c3ccc(NC(=O)c4ccc(OC)c(S(=O)(=O)N5CCOCC5)c4)cc3S(=O)(=O)O)c(S(=O)(=O)O)c2)cc1S(=O)(=O)N1CCOCC1` [Example 30s, 2,2′-[(E)-1,2-Ethenediyl]bis[5-[[4-methoxy-3-(4-morpholinylsulfonyl)benzoyl]amino]benzenesulfonic Acid]] here?
Its IC50 is 4400 nM.

How did the IC50 [1] turn out when `COc1ccc(C(=O)Nc2ccc(/C=C/c3ccc(NC(=O)c4ccc(OC)c(S(=O)(=O)N5CCN(C(C)=O)CC5)c4)cc3S(=O)(=O)O)c(S(=O)(=O)O)c2)cc1S(=O)(=O)N1CCN(C(C)=O)CC1` [Example 34a, 2,2′-[(E)-1,2-Ethenediyl]bis[5-[[3-[(4-acetyl-1-piperazinyl)sulfonyl]-4-methoxybenzoyl]amino]benzenesulfonic Acid]] was run?
The IC50 was 3300 nM.

Which IC50 [1, 3] does the source give for `CS(=O)(=O)c1ccc(C(=O)Nc2ccc(/C=C/c3ccc(NC(=O)c4ccc(S(C)(=O)=O)c([N+](=O)[O-])c4)cc3S(=O)(=O)O)c(S(=O)(=O)O)c2)cc1[N+](=O)[O-]` [Example 30c, 2.2′-[(E)-1,2-Ethenediyl]bis[5-[[(4-methylsulfonyl)-3-(nitro)-benzoyl]amino]benzenesulfonic Acid]] here?
The IC50 was 3600 nM.

How did the IC50 [1] turn out when `O=C(Nc1ccc(/C=C/c2ccc(NC(=O)c3ccc(OC4CCOCC4)c(S(=O)(=O)N4CCOCC4)c3)cc2S(=O)(=O)O)c(S(=O)(=O)O)c1)c1ccc(OC2CCOCC2)c(S(=O)(=O)N2CCOCC2)c1` [Example 30r, 2,2′-[(E)-1,2-Ethenediyl]bis[5-[[3-(4-morpholinylsulfonyl)-4-[(tetrahydro-2H-pyran-4-yl)oxy]benzoyl]amino]benzenesulfonic Acid]] was run?
The IC50 was 2000 nM.

Which “IC50 (mg/Kg) ovaries” value ([2]; ip) does the source give for “2,2′-[(E)-1,2-Ethenediyl]bis[5-[[4-(methylthio)-3-(4-morpholinylsulfonyl)benzoyl]amino]benzenesulfonic Acid] [Example 30b]” here?
The value was 8.1 mg/kg.

And the “IC50 (mg/Kg) uterus” value ([2]; ip)?
Its value is 1.3 mg/kg.

And the “IC50 (mg/Kg) ovaries” value ([2]; po)?
Its value is 23 mg/kg.

And the “IC50 (mg/Kg) uterus” value ([2]; po)?
Its value is 10 mg/kg.

And the IC50 [1, 3]?
Its IC50 is 1300 nM.

For `COCCNS(=O)(=O)c1cc(C(=O)Nc2ccc(/C=C/c3ccc(NC(=O)c4ccc(OC)c(S(=O)(=O)NCCOC)c4)cc3S(=O)(=O)O)c(S(=O)(=O)O)c2)ccc1OC` [Example 30m, 2,2′-[(E)-1,2-Ethenediyl]bis[5-[[4-methoxy-3-[[(2-methoxyethyl)amino]sulfonyl]benzoyl]amino]benzenesulfonic Acid]], which IC50 [1] is on record?
The IC50 was 5800 nM.
